Experimental data as given in patent publication US5593970A, “Heterocyclic anthracycline analogs” (priority 1994, dated 1997).
Counter-ions that a name gives are not always drawn. Like-named read-outs stand apart in the source and are kept apart here.

What was measured:
BE-1 = test: Soft agar colony formation disk diffusion assay; assay type: cell-based, human
Description: (§1) A more elaborate version of this fundamental assay, the soft agar colony formation disk diffusion assay was used. This assay defines the relative activity of one particular drug versus a tumoral cell line type. The effect of the test drug against tumoral cells could be measured by its inhibitory capacity against colony formation after the delivery of the compound, in different concentrations on an filter disk(4). A modified technique of this assay was used in order to investigate the antiproliferative activity of candidate compounds. Tumoral cells from solid tumors and ascitic lines were plated separately in a two layer agar matrix. Cell lines to be tested were suspended in an upper layer of 0.4% Noble agar (Difco#00142-01) in RPMI-1066 (Gibco#3201875) at a yield varying between 10^4 to 2×10^5 cells per 60 mm Petri dish. Plating efficiency was determined for each line in order to achieve an optimal number of colonies per dish. Plates were examined before drug administration to confirm a uniform dispersion of single cells. The bottom layer consisted of 0.8% Noble agar, 0.8% Tryptic Soy Broth (difco#0037001)in CMRL-1066/Fischer's. The bottom layers were used within 2 and 9 days of preparation. Plated dishes (bottom layer of agar, upper layer of cells and administered drug were incubated in humidified atmosphere at 37° C., 5% CO2 for 10-20 days depending upon the time necessary to observe adequate colonies (defined as a cell aggregate of more than 50 cells) both control and drug inhibited. Drugs were administered on a paper filter disk (Whatman No. 1) of 6.5 mm diameter placed on the upper layer at 1/3 distance from the edge of the dish. The anti-clonogenic activity of the compounds was measured as the zone of inhibition from the disk edge to the most proximal colonies. This zone of inhibition was checked on an inverted microscope (40×) and was measured with a micrometer mounted in the eyepiece. The ocular micrometer was calibrated with a stage micrometer set for a particular combination of ocular and objective lenses. […] We made a modification of the initial technique by not plating a solid tumor and a leukemia simultaneously in the same Petri dish. Anti-clonogenic tests performed on leukemia cell line have helped in the discovery of the majority of current clinically used cytostatic drugs. Our tests on solid tumor lines (animal or human) may help define active compounds with solid tumor specificity. […] HUMAN TUMORS. […] LS180 (13) and BE1(14) were obtained from the Oncology Dept. of the Montreal General Hospital. […] Cell lines were routinely passaged twice a week by trypsinization and maintained in 25, or 75-sq. cm Falcon Plastic flasks at 37° C., 5% CO2 in humidified atmosphere. Both compounds were dissolved in DMSO (1 mg/100 ul) and brought to final volume (250 ul) with Millipore deionized sterile water. Further dilutions were made with […] volume of 25 ul of freshly prepared solution was placed on the filter disk and allowed to dry.

MCF7 = test: Soft agar colony formation disk diffusion assay; assay type: cell-based, human
Description: as §1

LS180 = test: Soft agar colony formation disk diffusion assay; assay type: cell-based, human
Description: as §1

MCF7/ADR = test: Soft agar colony formation disk diffusion assay; assay type: cell-based, human
Description: as §1

LOX = test: Microculture tetrazolium assay; assay type: cell-based; conditions: read-out: IC50
HT29 = test: Microculture tetrazolium assay; assay type: cell-based; conditions: read-out: IC50
CNS = test: NCI assay, average per cancer type; conditions: Homo sapiens; for GI50: read-out: Average LOG10 GI50
Colon = test: NCI assay, average per cancer type; conditions: Homo sapiens; for CC50: 48 h, read-out: Average LOG10 LC50; for GI50: read-out: Average LOG10 GI50
Melanoma = test: NCI assay, average per cancer type; conditions: Homo sapiens; for CC50: 48 h, read-out: Average LOG10 LC50; for GI50: read-out: Average LOG10 GI50
SC Lung = test: NCI assay, average per cancer type; conditions: Homo sapiens; for GI50: read-out: Average LOG10 GI50
Ovarian = test: NCI assay, average per cancer type; conditions: Homo sapiens; for GI50: read-out: Average LOG10 GI50
Renal = test: NCI assay, average per cancer type; conditions: Homo sapiens; for CC50: 48 h, read-out: Average LOG10 LC50; for GI50: read-out: Average LOG10 GI50
[1] = 48 h, read-out: Average LOG10 LC50

Molecule	zone of inhibition (BE-1; 10 μg/DISK) [Zone Units]	zone of inhibition (BE-1; 100 μg/DISK) [Zone Units]	zone of inhibition (MCF7; 10 μg/DISK) [Zone Units]	zone of inhibition (MCF7; 100 μg/DISK) [Zone Units]	zone of inhibition (LS180; 10 μg/DISK) [Zone Units]	zone of inhibition (LS180; 100 μg/DISK) [Zone Units]	zone of inhibition (MCF7/ADR; 10 μg/DISK) [Zone Units]	zone of inhibition (MCF7/ADR; 100 μg/DISK) [Zone Units]	IC50 (LOX) [µM]	IC50 (HT29; HT29) [µM]	GI50 (CNS) [µM]	CC50 (Colon) [µM]	GI50 (Colon) [µM]	CC50 (Melanoma) [µM]	GI50 (Melanoma) [µM]	GI50 (SC Lung) [µM]	GI50 (Ovarian) [µM]	CC50 (Renal) [µM]	GI50 (Renal) [µM]	also measured
3-(2-hydroxy)aceto-6-hydroxy-1,2,3,4-tetrahydro-(2-oxygen)naphthacene-5,12-dione and 3-(2-hydroxy)aceto-11-hydroxy-1,2,3,4-tetrahydro-(2-oxygen)naphthacene-5,12-dione [BCH-694]	54.9 ± 8.6	189.0 ± 8.4	61.0 ± 0.0	149.4 ± 12.9	48.8 ± 17.2	153.2 ± 1.0	0	161.5 ± 13.4	15	13.4	–	–	–	–	–	–	–	–	–	–
3-Carbomethoxy-1,11-dihydroxy-1,2,3,4-tetrahydro-(2-oxygen)naphthacene-5,12-dione 3-Carbomethoxy-1,6-dihydroxy-1,2,3,4-tetrahydro-(2-oxygen)naphthacene-5,12-dione [BCH-711]	–	–	0	244.0 ± 17.2	18.0 ± 16.9	182.5 ± 43.1	24.4 ± 8.5	222.4 ± 159.2	11.5	5.68	–	–	–	–	–	–	–	–	–	–
3-carbomethoxy-6-hydroxy-1,2,3,4-tetrahydro-(2-sulfur)naphthacene-5,12-dione and 3-carbomethoxy-11-hydroxy-1,2,3,4-tetrahydro(2-sulfur)naphthacene-5,12-dione [BCH-693]	0	76.2 ± 21.5	0	67.1 ± 34.5	0	39.6 ± 4.3	24.4 ± 17.2	67.1 ± 25.8	48	18.9	–	–	–	–	–	–	–	–	–	–
COC(=O)C1CC2=C(C(=O)c3c(cc4ccccc4c3O)C2=O)C(O[C@H]2C[C@H](NC(=O)C(F)(F)F)[C@H](O)[C@H](C)O2)O1 (mixture of isomers) [BCH-242, (1'S,1R,3S) and (1'S, 1S,3R)-Methyl[11-hydroxy-1-2',3',6'-trideoxy-3-trifluroacetamido-L-lyxohexopyranose)-5,12-dioxo-3,4,5,12-tetrahydroanthraceno[2,3-c]pyran-3-yl]formate]	–	–	–	–	–	–	–	–	–	–	1.55	2.57	0.316	3.89	0.437	0.355	0.741	6.03	0.955	–
COC(=O)[C@@H]1CC2=C(C(=O)c3c(c(OC)c4ccccc4c3O)C2=O)[C@@H](O[C@H]2C[C@H](NC(=O)C(F)(F)F)[C@H](O)[C@H](C)O2)O1 (mixture of isomers) [BCH-674, (1'S,1S,3R) and 1'S,1R,3S) Methyl(11-hydroxy-6-methoxy-1-[2',3',6'-trideoxy-3-trifluoroacetamido-4'-hydroxy-L-lyxohexopyranose]-5,12-dioxo-3,4,5,12-tetrahydroanthra-ceno[2,3-c]pyran-3-yl) formate]	–	–	0	76.2 ± 21.6	0	67.1 ± 8.6	0	339.6 ± 4.3	2.06	–	13.8	97.7	13.5	89.1	13.2	13.2	15.8	57.5	8.91	CC50 (CNS; [1]): 63.1 µM; CC50 (SC Lung; [1]): 120 µM; CC50 (Ovarian; [1]): 83.2 µM; IC50 (HT29; Homo sapiens, HT-29, HT29): 6.63 µM
